According to ChEMBL document CHEMBL1158517, “Discovery of carmegliptin: a potent and long-acting dipeptidyl peptidase IV inhibitor for the treatment of type 2 diabetes” (Bioorg Med Chem Lett, 2010):
Calls of active or inactive are those of the source. No cut-off for these calls is given here.

Assays:
[1] = Distribution coefficient, log D at pH 7.4; assay type: physicochemical; details: octanol/water
Rattus norvegicus [2] = assay: Antidiabetic activity in Zucker fa/fa rat assessed as reduction in glucose level at 0.3 mg/kg pretreated 2 hrs before glucose challenge measured after 40 mins by oral glucose tolerance test; assay type: functional; design: scale not given: the % may be the effect or the level left
[3] = Permeability coefficient by PAMPA; assay type: ADME
[4] = Half life in Wistar rat at 1 mg/kg, iv; assay type: ADME, organism-based; design: dose 1 mg/kg, route intravenous; details: in vivo
[5] = Oral bioavailability in cynomolgus monkey at 3 mg/kg; assay type: ADME, organism-based, Macaca fascicularis; details: in vivo
[6] = Clearance in Wistar rat at 1 mg/kg, iv; assay type: ADME, organism-based; design: dose 1 mg/kg, route intravenous; details: in vivo
[7] = Half life in cynomolgus monkey at 1 mg/kg, iv; assay type: ADME, organism-based, Macaca fascicularis; design: dose 1 mg/kg, route intravenous; details: in vivo
[8] = Volume of distribution at steady state in Wistar rat at 1 mg/kg, iv; assay type: ADME, organism-based; design: dose 1 mg/kg, route intravenous; details: in vivo, read-out: Vdss
[9] = Oral bioavailability in Wistar rat at 3 mg/kg; assay type: ADME, organism-based; details: in vivo
hERG (KCNH2) [10] = biological target: T1, hERG (KCNH2) (Homo sapiens, UniProt Q12809); assay: Inhibition of human ERG at 10 uM by patch clamp assay
Phospholipidosis = assay: In vitro phospholipidosis at <20uM; assay type: ADME
[11] = Volume of distribution at steady state in cynomolgus monkey at 1 mg/kg, iv; assay type: ADME, organism-based, Macaca fascicularis; design: dose 1 mg/kg, route intravenous; details: in vivo, read-out: Vdss
[12] = Clearance in cynomolgus monkey at 1 mg/kg, iv; assay type: ADME, organism-based, Macaca fascicularis; design: dose 1 mg/kg, route intravenous; details: in vivo
Mus musculus [13] = assay: Antidiabetic activity in db/db mouse assessed as reduction in glucose AUC at 10 mg/kg by oral glucose tolerance test relative to control; assay type: functional; design: scale not given: the % may be the effect or the level left
Rattus norvegicus [14] = assay: Antidiabetic activity in Zucker fa/fa rat assessed as reduction in hepatic glucose production at 20 mg/kg daily once for 7 days by euglycemic hyperinsulinemic clamp; assay type: functional
Rattus norvegicus [15] = species on record: Rattus norvegicus; assay: Renal clearance in rat as % of total clearance; assay type: ADME, organism-based, Kidney; details: in vivo
hERG (KCNH2) [16] = biological target: T1, hERG (KCNH2); assay: Inhibition of human ERG by patch clamp assay
Cynomolgus monkey [17] = assay: Inhibition of DPP4 in cynomolgus monkey plasma assessed as remaining activity at 3 mg/kg, po after 48 hrs relative to control; assay type: functional, Macaca fascicularis
Canis familiaris = species on record: Canis familiaris; assay: Renal clearance in dog as % of total clearance; assay type: ADME, organism-based, Canis lupus familiaris, Kidney; details: in vivo
Cynomolgus monkey [18] = assay: Inhibition of DPP4 in cynomolgus monkey plasma assessed as remaining activity at 3 mg/kg, po after 24 hrs relative to control; assay type: functional, Macaca fascicularis
Rhesus monkey = assay: Renal clearance in monkey as % of total clearance; assay type: ADME, organism-based, Macaca mulatta, Kidney; details: in vivo
Mus musculus [19] = assay: Antidiabetic activity in db/db mouse assessed as reduction in fasting glucose level at 10 mg/kg; assay type: functional, organism-based; design: dose 10 mg/kg
Rattus norvegicus [20] = assay: Antidiabetic activity in Zucker fa/fa rat assessed as increase in glucose infusion rate at 20 mg/kg daily once for 7 days by euglycemic hyperinsulinemic clamp; assay type: functional, organism-based; design: dose 20 mg/kg

T1 sequence (Q12809 whole entry): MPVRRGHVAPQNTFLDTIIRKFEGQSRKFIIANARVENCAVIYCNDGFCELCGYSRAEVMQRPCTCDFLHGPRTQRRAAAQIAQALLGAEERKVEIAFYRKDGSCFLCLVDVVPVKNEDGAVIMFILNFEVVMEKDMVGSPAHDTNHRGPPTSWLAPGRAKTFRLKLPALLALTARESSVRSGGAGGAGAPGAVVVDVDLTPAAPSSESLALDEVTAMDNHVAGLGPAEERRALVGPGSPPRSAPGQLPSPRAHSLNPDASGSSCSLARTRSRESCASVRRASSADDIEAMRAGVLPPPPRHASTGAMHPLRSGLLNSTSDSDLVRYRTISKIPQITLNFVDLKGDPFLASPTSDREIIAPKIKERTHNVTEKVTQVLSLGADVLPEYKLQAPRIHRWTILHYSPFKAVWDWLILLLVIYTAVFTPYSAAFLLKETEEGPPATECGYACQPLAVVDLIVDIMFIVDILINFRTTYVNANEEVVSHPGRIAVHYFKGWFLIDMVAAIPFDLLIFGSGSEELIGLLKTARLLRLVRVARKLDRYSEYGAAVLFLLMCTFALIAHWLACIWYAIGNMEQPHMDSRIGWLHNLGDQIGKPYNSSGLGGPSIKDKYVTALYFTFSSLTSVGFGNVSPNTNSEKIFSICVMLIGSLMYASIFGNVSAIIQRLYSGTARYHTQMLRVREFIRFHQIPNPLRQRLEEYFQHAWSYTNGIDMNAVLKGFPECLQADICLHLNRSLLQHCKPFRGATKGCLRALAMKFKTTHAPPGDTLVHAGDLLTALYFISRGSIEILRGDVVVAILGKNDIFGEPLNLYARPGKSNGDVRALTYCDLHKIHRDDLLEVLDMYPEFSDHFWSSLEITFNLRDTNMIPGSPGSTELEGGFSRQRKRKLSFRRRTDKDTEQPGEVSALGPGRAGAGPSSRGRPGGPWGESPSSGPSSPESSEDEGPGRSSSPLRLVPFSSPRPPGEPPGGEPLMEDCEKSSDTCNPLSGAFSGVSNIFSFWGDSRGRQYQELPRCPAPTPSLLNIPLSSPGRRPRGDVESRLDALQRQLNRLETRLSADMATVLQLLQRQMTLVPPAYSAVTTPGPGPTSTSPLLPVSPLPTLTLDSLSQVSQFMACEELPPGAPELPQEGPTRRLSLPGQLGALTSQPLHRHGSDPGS

logD [1] | permeability [3] [×10⁻⁶ cm/s] | SMILES | Activity (Rattus norvegicus [2]) [%] | Phospholipidosis (Phospholipidosis) | further results
-0.3 | 0.8 | COc1cc2c(cc1OC)[C@@H]1C[C@H](N)[C@@H](N3C[C@H](C)CC3=O)CN1CC2 | 46 | – | –
-0.5 | 0.2 | COc1cc2c(cc1OC)[C@@H]1C[C@H](N)[C@@H](N3CCCCC3=O)CN1CC2 | 56 | Not Active | half-life [4]: 270 min; bioavailability [5]: 64%; clearance [6]: 25 mL/min/kg; half-life [7]: 564 min; Vd [8]: 5.9 L/kg; bioavailability [9]: 47%; inhibition at 10 µM (hERG (KCNH2) [10]): 45%; Vd [11]: 8.6 L/kg; clearance [12]: 18.7 mL/min/kg
-0.2 | 0.5 | COc1cc2c(cc1OC)C1CC(N)C(N3CCC(C)CC3=O)CN1CC2 (stereo not given) | 16 | – | –
-0.5 | 0.2 | COc1cc2c(cc1OC)C1CC(N)C(N3CCCCC3=O)CN1CC2 (stereo not given) | 33 | – | –
-0.4 | 0.4 | COc1cc2c(cc1OC)[C@@H]1C[C@H](N)[C@@H](N3C[C@H](CF)CC3=O)CN1CC2 | 77 | Not Active | Activity (Mus musculus [13]): 20%
0 | 1.1 | COc1cc2c(cc1OC)C1CC(N)C(N3CC(C)CCC3=O)CN1CC2 (stereo not given) | 34 | Not Active | –
-0.2 | 0.2 | COc1cc2c(cc1OC)C1CC(N)C(N3CC(C)CC3=O)CN1CC2 (stereo not given) | 42 | Not Active | inhibition at 10 µM (hERG (KCNH2) [10]): 9%
-0.9 | 0.1 | COc1cc2c(cc1OC)C1CC(N)C(N3CCCOC3=O)CN1CC2 (stereo not given) | – | – | –
-0.1 | 0.9 | CCC1CC(=O)N(C2CN3CCc4cc(OC)c(OC)cc4C3CC2N)C1 (stereo not given) | 31 | – | inhibition at 10 µM (hERG (KCNH2) [10]): 45%
-0.5 | 0.13 | COc1cc2c(cc1OC)[C@@H]1C[C@H](N)[C@@H](N3C[C@@H](CF)CC3=O)CN1CC2 [CARMEGLIPTIN] | 66 | Not Active | Activity (Rattus norvegicus [14]): 1.3 mg/min/kg; Fraction cleared renally (Rattus norvegicus [15]): 30%; Activity (Mus musculus [13]): 30%; half-life [4]: 318 min; IC20 (hERG (KCNH2) [16]): 21 µM; bioavailability [5]: 33%; Activity (Cynomolgus monkey [17]): 60%; clearance [6]: 24 mL/min/kg; half-life [7]: 408 min; Vd [8]: 6.3 L/kg; Fraction cleared renally (Canis familiaris): 30%; Activity (Cynomolgus monkey [18]): 40%; Fraction cleared renally (Rhesus monkey): 30%; bioavailability [9]: 28%; Activity (Mus musculus [19]): Active; Activity (Rattus norvegicus [20]): Active; Vd [11]: 3.3 L/kg; clearance [12]: 8.5 mL/min/kg
-0.5 | 0.6 | COc1cc2c(cc1OC)C1CC(N)C(N3CCCC3=O)CN1CC2 (stereo not given) | – | – | –
-0.4 | 0.7 | COc1cc2c(cc1OC)C1CC(N)C(N3CCCC[S+]3[O-])CN1CC2 (stereo not given) | 18 | – | –
-0.1 | 0.6 | COc1cc2c(cc1OC)[C@@H]1C[C@H](N)[C@@H](N3C[C@@H](C)CC3=O)CN1CC2 | 79 | Not Active | Activity (Mus musculus [13]): 50%; Activity (Mus musculus [19]): Active; Activity (Rattus norvegicus [20]): Active
-0.7 | 1.2 | COc1cc2c(cc1OC)C1CC(N)C(N3CCC[S+]3[O-])CN1CC2 (stereo not given) | – | – | –
-0.8 | 0 | COc1cc2c(cc1OC)C1CC(N)C(N3CCOC3=O)CN1CC2 (stereo not given) | – | – | –
